From patent publication US20250320189A1, “NEW DERIVATIVES FOR TREATING TRPM3 MEDIATED DISORDERS” (Katholieke Universiteit Leuven, priority 2022, published 2025) come the findings set out here.

In this assay the target is T1, mouse TRPM3α2 (mTRPM3) ion channel (Mus musculus, UniProt J9SQF3).
T1 construct: expressed in transfected cells; host or cells: flip-in (Flp-In) HEK293
In words: Monitoring the TRPM3 ion channel driven Ca2+ uptake (Fluo-4 AM assay). In kind it is cell-based. To be noted: mTRPM3alpha2 overexpressing flip-in HEK293 cells, stimulated with Pregnenolone sulfate (PS) 50 μM. How it is done: In order to monitor the inhibition of the mouse TRPM3α2 (mTRPM3) ion channel by the compounds of the invention, a cellular system making use of an mTRPM3alpha2 or hTRPM3 overexpressing cell line (flip-in HEK293) was used. The TRPM3 channel was stimulated/opened with Pregnenolone sulfate (PS) (50 μM) which results in Ca^2+ influx.
For mTRPM3, the intracellular Ca^2+ was measured with a Calcium responsive dye, Fluor-4 AMV ester (Invitrogen). Cells were cultured until a confluence of 80-90%, washed with Versene (Invitrogen) and detached from the surface by a short incubation with 0.05% Trypsin (Invitrogen). The trypsination process was stopped by the addition of complete cell culture medium (DMEM, glutamax, 10% FCS, NEAA,Pen-Strep). Cells were collected and resuspended in Krebs buffer without Calcium at RT.
Prior the cell seeding (±2000 cells/well into a black, 384 well plate (Greiner)) the diluted compound was added in the assay plate, together with the PS dissolved in Krebs buffer containing Calcium. […] Directly after cell addition the plates were read on an Envision fluorescence reader (PerkinElmer) by an Excitation of 485 nm and emission at 535 nm.
Channel inhibition was calculated compared to a non-PS stimulated control versus a condition stimulated with PS (50 μM) with vehicle. The ability of the compounds of the invention to inhibit this activity was determined as: Percentage inhibition=[1−((RFU determined for sample with test compound present−RFU determined for sample with positive control inhibitor) divided by (RFU determined in the presence of vehicle−RFU determined for sample with positive control inhibitor))]*100.
The activities of the Example compounds tested are depicted in the table below. The activity ranges A, B and C refer to IC50 values in the Fluo-4 AM assay as follows: “A”: IC50<1 μM; “B”: 1 μM≤IC50≤20 μM and “C”: IC50>20 μM

pIC50: −log10 of the molar value.

T1 sequence (J9SQF3 1-1709 isoform J9SQF3-12): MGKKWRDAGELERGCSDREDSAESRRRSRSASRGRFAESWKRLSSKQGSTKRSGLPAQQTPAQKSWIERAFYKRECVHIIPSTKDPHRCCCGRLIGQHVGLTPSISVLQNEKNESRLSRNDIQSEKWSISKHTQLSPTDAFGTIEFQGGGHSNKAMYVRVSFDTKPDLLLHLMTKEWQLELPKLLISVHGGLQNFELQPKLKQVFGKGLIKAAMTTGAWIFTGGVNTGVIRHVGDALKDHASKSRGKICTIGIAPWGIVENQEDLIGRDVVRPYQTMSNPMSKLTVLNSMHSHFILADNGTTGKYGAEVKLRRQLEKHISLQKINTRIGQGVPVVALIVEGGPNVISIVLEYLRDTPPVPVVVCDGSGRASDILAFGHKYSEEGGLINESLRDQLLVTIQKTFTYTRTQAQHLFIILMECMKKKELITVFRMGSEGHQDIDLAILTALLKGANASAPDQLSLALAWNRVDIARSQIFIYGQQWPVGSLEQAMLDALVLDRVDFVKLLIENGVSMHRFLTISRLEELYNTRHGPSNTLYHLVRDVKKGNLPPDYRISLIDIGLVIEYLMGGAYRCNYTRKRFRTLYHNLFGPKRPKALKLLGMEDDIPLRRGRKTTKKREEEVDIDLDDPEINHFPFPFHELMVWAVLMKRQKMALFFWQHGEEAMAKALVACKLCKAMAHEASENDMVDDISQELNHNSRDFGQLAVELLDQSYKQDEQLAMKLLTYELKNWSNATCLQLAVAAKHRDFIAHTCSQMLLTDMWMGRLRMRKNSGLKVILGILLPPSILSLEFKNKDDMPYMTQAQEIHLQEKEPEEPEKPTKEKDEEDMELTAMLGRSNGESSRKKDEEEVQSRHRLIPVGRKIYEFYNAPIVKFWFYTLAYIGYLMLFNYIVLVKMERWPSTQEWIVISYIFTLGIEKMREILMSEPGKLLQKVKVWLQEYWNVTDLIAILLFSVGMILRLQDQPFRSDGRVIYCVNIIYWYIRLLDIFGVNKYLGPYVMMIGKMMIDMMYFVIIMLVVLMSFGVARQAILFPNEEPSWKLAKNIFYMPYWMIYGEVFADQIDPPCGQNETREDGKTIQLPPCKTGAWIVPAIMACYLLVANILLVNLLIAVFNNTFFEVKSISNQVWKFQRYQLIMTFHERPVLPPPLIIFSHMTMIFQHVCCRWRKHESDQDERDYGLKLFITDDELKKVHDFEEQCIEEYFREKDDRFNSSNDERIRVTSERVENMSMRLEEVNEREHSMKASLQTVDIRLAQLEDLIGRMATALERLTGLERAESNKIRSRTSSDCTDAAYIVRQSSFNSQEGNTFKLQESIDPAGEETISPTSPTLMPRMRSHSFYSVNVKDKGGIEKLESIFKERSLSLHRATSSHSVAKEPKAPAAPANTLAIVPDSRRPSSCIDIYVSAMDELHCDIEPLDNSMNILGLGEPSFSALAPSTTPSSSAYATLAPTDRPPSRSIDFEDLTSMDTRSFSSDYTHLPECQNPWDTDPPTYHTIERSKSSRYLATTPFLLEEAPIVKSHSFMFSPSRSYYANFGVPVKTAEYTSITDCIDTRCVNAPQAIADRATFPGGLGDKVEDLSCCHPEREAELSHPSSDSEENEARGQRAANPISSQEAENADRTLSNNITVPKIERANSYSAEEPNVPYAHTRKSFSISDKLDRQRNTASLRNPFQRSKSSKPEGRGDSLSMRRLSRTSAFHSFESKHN

The term pIC50 denotes −log10 of the IC50, conventionally taken in molar units. High values mean a low IC50, low ones a high IC50. Turning to `Cc1oc2ccc(OC[C@H]3C[C@@H](C)C3)cc2c1C(=O)NC(C)(CO)C(N)=O` (single isomer, unassigned) [Cpd 058 - En2, Cis-3-hydroxy-2-methyl-2-({2-methyl-5-[(3-methylcyclobutyl)methoxy]-1-benzofuran-3-yl}formamido)propenamide], the pIC50 was 4.70 to 6.00.

On to `Cc1oc2ccc(OCC3CC3(C)C)cc2c1C(=O)NC(C)(CO)C(N)=O` (single isomer, unassigned) [Cpd 049 - En4, 2-({5-[(2,2-dimethylcyclopropyl)methoxy]-2-methyl-1-benzofuran-3-yl}formamido)-3-hydroxy-2-methylpropanamide], for which the pIC50 was greater than 6.00.

On to `Cc1oc2ccc(OCC3CC3(F)F)cc2c1C(=O)NC(CO)CC(F)(F)F` (single isomer, unassigned) [Cpd 057 - En1, 5-[(2,2-difluorocyclopropyl)methoxy]-2-methyl-N-(4,4,4-trifluoro-1-hydroxybutan-2-yl)-1-benzofuran-3-carboxamide], for which the pIC50 was greater than 6.00.

Turning to `Cc1oc2ccc(OCC3(C)CC3)cc2c1C(=O)NC1CCNCC1(F)F` (single isomer, unassigned) [Cpd 032 - En1, N-(3,3-difluoropiperidin-4-yl)-2-methyl-5-[(1-methylcyclopropyl)methoxy]-1-benzofuran-3-carboxamide], the pIC50 was greater than 6.00.

`Cc1oc2ccc(OC[C@H]3C[C@@H]4C[C@@H]4C3)cc2c1C(=O)NC(C)(CO)C(N)=O` (single isomer, unassigned) [Cpd 051 - En1, Trans-2-{[5-({bicyclo[3.1.0]hexan-3-yl}methoxy)-2-methyl-1-benzofuran-3-yl]formamido}-3-hydroxy-2-methylpropanamide] showed a pIC50 greater than 6.00.

The compound `Cc1oc2ccc(OCC3(C(F)F)CC3)cc2c1C(=O)N[C@H](C(N)=O)[C@@H](C)O` [Cpd 011, (2S,3R)-2-[(5-{[1-(difluoromethyl)cyclopropyl]methoxy}-2-methyl-1-benzofuran-3-yl)formamido]-3-hydroxybutanamide] had a pIC50 greater than 6.00.

In the case of `Cc1oc2ccc(OCC3CC3)cc2c1C(=O)NC1(CO)COC1` [Cpd 029, 5-(cyclopropylmethoxy)-N-[3-(hydroxymethyl)oxetan-3-yl]-2-methyl-1-benzofuran-3-carboxamide], the pIC50 is greater than 6.00.

In turn, `Cc1oc2ccc(OCC3CC3)cc2c1C(=O)NC(C)(CO)C(N)=O` (single isomer, unassigned) [Cpd 017 - En2, 2-{[5-(cyclopropylmethoxy)-2-methyl-1-benzofuran-3-yl]formamido}-3-hydroxy-2-methylpropanamide] showed a pIC50 greater than 6.00.

The compound `Cc1oc2ccc(OCC(C)(C)C)cc2c1C(=O)NC1CCNCC1(F)F` (single isomer, unassigned) [Cpd 043-En1, N-(3,3-difluoropiperidin-4-yl)-5-(2,2-dimethylpropoxy)-2-methyl-1-benzofuran-3-carboxamide] had a pIC50 of 4.70 to 6.00.

Regarding `Cc1oc2ccc(OCC3CCC3)cc2c1C(=O)NC(C)(CO)CO` [Cpd 018, 5-(cyclobutylmethoxy)-N-(1,3-dihydroxy-2-methylpropan-2-yl)-2-methyl-1-benzofuran-3-carboxamide], the pIC50 is greater than 6.00.

Take `Cc1oc2ccc(OCC(F)F)cc2c1C(=O)N[C@H](C(N)=O)[C@@H](C)O` [Cpd 040, (2S,3R)-2-{[5-(2,2-difluoroethoxy)-2-methyl-1-benzofuran-3-yl]formamido}-3-hydroxybutanamide]: the pIC50 is greater than 6.00.

On to `Cc1oc2ccc(OCC3(C(F)(F)F)CC3)cc2c1C(=O)NC1(C)CCCNC1=O` (single isomer, unassigned) [Cpd 061 - En1, 2-methyl-N-(3-methyl-2-oxopiperidin-3-yl)-5-{[1-(trifluoromethyl)cyclopropyl]methoxy}-1-benzofuran-3-carboxamide], for which the pIC50 is less than 4.70.

As to `Cc1oc2ccc(OCC3(C(F)F)CC3)cc2c1C(=O)NC1(C(N)=O)CCOC1` (single isomer, unassigned) [Cpd 036 - En1, N-(3-carbamoyloxolan-3-yl)-5-{[1-(difluoromethyl)cyclopropyl]methoxy}-2-methyl-1-benzofuran-3-carboxamide], the pIC50 was 4.70 to 6.00.

Consider `Cc1oc2ccc(OCC3CC3)cc2c1C(=O)NC1(CO)CCOCC1` [Cpd 030, 5-(cyclopropylmethoxy)-N-[4-(hydroxymethyl)oxan-4-yl]-2-methyl-1-benzofuran-3-carboxamide], for which the pIC50 is greater than 6.00.

On to `COCC(C)(CO)NC(=O)c1c(C)oc2ccc(OCC3(C(F)(F)F)CC3)cc12` (single isomer, unassigned) [Cpd 060 - En1, N-(1-hydroxy-3-methoxy-2-methylpropan-2-yl)-2-methyl-5-{[1-(trifluoromethyl)cyclopropyl]methoxy}-1-benzofuran-3-carboxamide], for which the pIC50 was 4.70 to 6.00.

For the compound `Cc1oc2ccc(OCC3CC3(F)F)cc2c1C(=O)NC(CO)CC(F)(F)F` (single isomer, unassigned) [Cpd 057 - En3, 5-[(2,2-difluorocyclopropyl)methoxy]-2-methyl-N-(4,4,4-trifluoro-1-hydroxybutan-2-yl)-1-benzofuran-3-carboxamide], the pIC50 is 4.70 to 6.00.

`Cc1oc2ccc(OCC3CC3(F)F)cc2c1C(=O)N[C@@H](CO)C(N)=O` (single isomer, unassigned) [Cpd 002 - En2] had a pIC50 greater than 6.00.

`Cc1oc2ccc(OCC3(C(F)F)CC3)cc2c1C(=O)NC(C)(CO)C(N)=O` (single isomer, unassigned) [Cpd 014 - En2, 2-[(5-{[1-(difluoromethyl)cyclopropyl]methoxy}-2-methyl-1-benzofuran-3-yl)formamido]-3-hydroxy-2-methylpropanamide] showed a pIC50 greater than 6.00.

Turning to `Cc1oc2ccc(OCC(F)F)cc2c1C(=O)NC(C)(CO)C(N)=O` (single isomer, unassigned) [Cpd 041 - En1, 2-{[5-(2,2-difluoroethoxy)-2-methyl-1-benzofuran-3-yl]formamido}-3-hydroxy-2-methylpropanamide], the negative-log IC50 (pIC50) is greater than 6.00.

`Cc1oc2ccc(OC[C@@H]3C[C@@H]4C[C@@H]4C3)cc2c1C(=O)NC(C)(CO)C(N)=O` (single isomer, unassigned) [Cpd 050 - En1, Cis-2-{[5-({bicyclo[3.1.0]hexan-3-yl}methoxy)-2-methyl-1-benzofuran-3-yl]formamido}-3-hydroxy-2-methylpropanamide]: the pIC50 is 4.70 to 6.00.

`Cc1oc2ccc(OCC3CC3(F)F)cc2c1C(=O)NC1CCNCC1(F)F` (single isomer, unassigned) [Cpd 031 - En4, 5-[(2,2-difluorocyclopropyl)methoxy]-N-(3,3-difluoropiperidin-4-yl)-2-methyl-1-benzofuran-3-carboxamide] showed a pIC50 greater than 6.00.

As for `Cc1oc2ccc(OCC3CC3)cc2c1C(=O)NC1CCCNC1=O` (single isomer, unassigned) [Cpd 055 - En1, 5-(cyclopropylmethoxy)-2-methyl-N-(2-oxopiperidin-3-yl)-1-benzofuran-3-carboxamide], the negative-log IC50 (pIC50) was greater than 6.00.

Turning to `Cc1oc2ccc(OC[C@H]3C[C@H](C)C3)cc2c1C(=O)NC(C)(CO)C(N)=O` (single isomer, unassigned) [Cpd 059 - En2, Trans-3-hydroxy-2-methyl-2-({2-methyl-5-[(3-methylcyclobutyl)methoxy]-1-benzofuran-3-yl}formamido)propenamide], the pIC50 is 4.70 to 6.00.

Regarding `Cc1oc2ccc(OCC3CC3(F)F)cc2c1C(=O)N[C@@H](CO)C(N)=O` (single isomer, unassigned) [Cpd 002 - En1], the pIC50 was greater than 6.00.

Regarding `Cc1oc2ccc(OCC3CC3(F)F)cc2c1C(=O)NC1CCNCC1(F)F` (single isomer, unassigned) [Cpd 031 - En1, 5-[(2,2-difluorocyclopropyl)methoxy]-N-(3,3-difluoropiperidin-4-yl)-2-methyl-1-benzofuran-3-carboxamide], the pIC50 is 4.70 to 6.00.

For the compound `Cc1oc2ccc(OCC3CCC3)cc2c1C(=O)NC(C)(C)C(N)=O` [Cpd 015, 2-{[5-(cyclobutylmethoxy)-2-methyl-1-benzofuran-3-yl]formamido}-2-methylpropanamide], the pIC50 was greater than 6.00.

In turn, `Cc1oc2ccc(OCC(C)C)cc2c1C(=O)NC1CCNCC1(F)F` (single isomer, unassigned) [Cpd 042-En1, N-(3,3-difluoropiperidin-4-yl)-2-methyl-5-(2-methylpropoxy)-1-benzofuran-3-carboxamide] gave a pIC50 of 4.70 to 6.00.

Regarding `Cc1oc2ccc(OCC3CC3)cc2c1C(=O)NC1(C(N)=O)COC1` [Cpd 034, N-(3-carbamoyloxetan-3-yl)-5-(cyclopropylmethoxy)-2-methyl-1-benzofuran-3-carboxamide], the pIC50 was greater than 6.00.
